Measured values from patent publication US10744104B2, “Neprilysin inhibitors” (THERAVANCE BIOPHARMA R&D IP, LLC, priority 2011, dated 2020).

Key:
NEP [1] = biological target: T1, NEP (Homo sapiens (Human), UniProt P08473); conditions: change of carboxylic acid chain length versus succinic acid compound 21a; cited from earlier work
NEP [2] = biological target: T1, NEP; experiment: Assay 1: in vitro enzyme inhibition assay at human NEP (fluorogenic peptide substrate); format: biochemical; conditions: for pKi: comparative examples, exact values
Experimental: The assays were performed in 384-well white opaque plates at 37° C. using the fluorogenic peptide substrates at a concentration of 10 μM in Assay Buffer (NEP: 50 mM HEPES, pH 7.5, 100 mM NaCl, 0.01% polyethylene glycol sorbitan monolaurate (Tween-20), 10 μM ZnSO4; ACE: 50 mM HEPES, pH 7.5, 100 mM NaCl, 0.01% Tween-20, 1 μM ZnSO4).
Test compounds were assayed over the range of concentrations from 10 μM to 20 pM. Test compounds were added to the enzymes and incubated for 30 minute at 37° C. prior to initiating the reaction by the addition of substrate. Reactions were terminated after 20 minutes of incubation at 37° C. by the addition of glacial acetic acid to a final concentration of 3.6% (v/v).
Inhibition constants were obtained by nonlinear regression of the data using the equation (GraphPad Software, Inc., San Diego, Calif.): v=v0/[1+(I/K′)] where v is the reaction rate, v0 is the uninhibited reaction rate, I is the inhibitor concentration and K′ is the apparent inhibition constant.

| Compound | decrease in activity relative to 21a (NEP [1]) [fold] | pKi (NEP [2]) | other results |
| --- | --- | --- | --- |
| C[C@H](C[C@@H](Cc1ccc(-c2ccccc2)cc1)NC(=O)CCCC(=O)O)C(=O)O [Example 21e] | 18 |  |  |
| C[C@H](C[C@@H](Cc1ccc(-c2ccccc2)cc1)NC(=O)CCCCC(=O)O)C(=O)O [Example 21f] | 65 |  |  |
| O=C(O)CCCC(=O)N[C@H](Cc1ccc(-c2ccccc2)cc1)C[C@@H](CO)C(=O)O [Comparative Compound H, (2S,4S)-5-Biphenyl-4-yl-4-(4-carboxy-butyrylamino)-2-hydroxmethylpentanoic Acid] |  | 8.6 |  |
| O=C(N[C@H](Cc1ccc(-c2cccc(Cl)c2)cc1)C[C@@H](O)C(=O)O)C(=O)OCCC(F)(F)F [Example 2N, (2R,4R)-5-(3′-Chlorobiphenyl-4-yl)-2-hydroxy-4-[(3,3,3-trifluoropropoxyoxalyl)-amino]pentanoic Acid] |  |  | Ki (NEP [2]; reported as ranges): ≤ 1 nM |
| O=C(O)CCCC(=O)N[C@H](Cc1ccc(-c2ccccc2)cc1)CC(O)C(=O)O (stereo partly drawn) [Comparative Compound E, (R)-5-Biphenyl-4-yl-4-(4-carboxybutrylamino)-2-hydroxypentanoic Acid] |  | 7.3 |  |
| C[C@H](CC(Cc1ccc(-c2ccccc2)cc1)NC(=O)CC(=O)O)C(=O)O (stereo partly drawn) [Example 21g] | 18 |  |  |
